From US20190022152A1, “MICROBIOME RESPONSE TO AGENTS” (Yeda Research and Development Co., Ltd., priority 2014, published 2019)
Peptide text beside a SMILES is read from it.

What was measured:
[1] = tested on: mice; test: Oral glucose tolerance test in mice drinking non-caloric artificial sweeteners (NAS); format: in vivo; conditions: lean C57Bl/6 mice, normal chow, commercial NAS formulations in drinking water, week 11; p<0.001 vs water, glucose, sucrose
From the text: C57Bl/6 WT adult male mice were randomly assigned (without blinding) to treatment groups and were given commercial artificial sweeteners (saccharin-, sucralose- or aspartame-based) or pure saccharin (Sigma Aldrich) in drinking water and fed a high-fat (HFD D12492, 60% Kcal from fat, Research Diets) or standard polysaccharide normal chow (NC) diet (Harlan-Teklad). Compared groups were always fed from the same batch of diet. For antibiotic treatment, mice were given a combination of ciprofloxacin (0.2 gl^−1) and metronidazole ([…]) or vancomycin (0.5 gl^−1) in their drinking water. All antibiotics were obtained from Sigma Aldrich. Adult male outbred Swiss-Webster mice (a widely used mouse strain in germ-free experiments) served as recipients for fecal transplants and were housed in sterile isolators (Park Biosciences). For fecal transplantation experiments, 200 mg of stool (from mouse pellets or human swabs) was resuspended in 5 ml of PBS under anaerobic conditions, vortexed for 3 minutes and allowed to settle by gravity for 2 minutes. Recipient mice were gavaged with 200 μl of the supernatant and maintained on standard NC diet and water throughout the experiment.
The following commercially available NAS were dissolved in mice drinking water to obtain a 10% solution: Sucrazit (5% saccharin, 95% glucose), Sucralite (5% Sucralose), Sweet'n Low Gold (4% Aspartame). 10% glucose (J.T. Baker) and 10% sucrose (Sigma Aldrich) solutions were used for controls. […] For experiments conducted with pure saccharin (Sigma Aldrich) a 0.1 mgml^−1 solution was used in order to meet with FDA defined ADI for saccharin in humans (5 mgkg^−1), according to the following calculation:
Mice were fasted for 6 hours during the light phase, with free access to water. In all groups of mice where the drinking regime was other than water, it was substituted for water for the period of the fasting and glucose or insulin tolerance test. Blood from the tail vein was used to measure glucose levels using a glucometer (Bayer) immediately before and 15, 30, 60, 90 and 120 minutes after oral feeding with 40 mg glucose (J.T. Baker) or intra-peritoneal injection with 0.1 Ukg^−1 Insulin (Biological Industries). Plasma fasting insulin levels were measured in sera collected immediately before the start of GTT using ELISA (Ultra Sensitive Mouse Insulin ELISA Kit, Crystal Chem).

[2] = literature values; cited from earlier work
[3] = tested on: fecal matter from naïve mice; test: In vitro anaerobic culturing of fecal matter with saccharin; format: cell-based; conditions: In vitro, PBS vs. SAC
Description: pooled fecal matter from naïve adult WT C57Bl/6 male mice was resuspended in 5 ml PBS in an anaerobic chamber (Coy Laboratory Products, 75% N2, 20% CO2, 5% H2), vortexed for 3 minutes and allowed to settle by gravity for 2 minutes. […] were added to a tube containing Chopped Meat Carbohydrate Broth, PR II (BD) and […] of a 5 mgml-1 saccharin solution or an equal volume of PBS. Every 3 days, 500 ml of culture were diluted to fresh medium containing saccharin or PBS. After 9 days, cultures were used for inoculation of germ-free mice.
Frozen fecal samples were processed for DNA isolation using the MoBio PowerSoil kit according to the manufacturer's instructions. […] the variable region 2 (V2) of the 16S rRNA gene were generated by using the following barcoded primers: Fwd 5′-[…]-3′ (SEQ ID NO: 3), Rev 5′-[…]-3′ (SEQ ID NO: 4). […] Reads were then processed using the QIIME (Quantitative Insights Into Microbial Ecology) analysis pipeline as described, version 1.8. Paired-end joined sequences were grouped into operational taxonomic units (OTUs) using the UCLUST algorithm and the greengenes database. Sequences with distance-based similarity of 97% or greater over median sequence length of 353 bp were assigned to the same OTU. Samples were grouped according to the treatment. […] P-values were FDR corrected for multiple hypothesis testing.

SMILES: OC[C@H]1O[C@H](O[C@]2(CCl)O[C@H](CCl)[C@@H](O)[C@@H]2O)[C@H](O)[C@@H](O)[C@H]1Cl [sucralose]
- glucose tolerance (OGTT) [1]: marked glucose intolerance
- reported toxic dose [2]: 16 gkg^−1

SMILES: O=C1NS(=O)(=O)c2ccccc21 [SAC]
- Log_fold change: 2-Oxocarboxylic acid metabolism [3]: 0.01
- Log_fold change: ABC transporters [3]: −0.03
- Log_fold change: Alanine, aspartate and glutamate metabolism [3]: −0.01
- Log_fold change: Amino sugar and nucleotide sugar metabolism [3]: 0.01
- Log_fold change: Aminoacyl-tRNA biosynthesis [3]: −0.02
- Log_fold change: Aminobenzoate degradation [3]: −0.01
- Log_fold change: Arginine and proline metabolism [3]: −0.01
- Log_fold change: Ascorbate and aldarate metabolism [3]: 0.03
- Log_fold change: Atrazine degradation [3]: −0.05
- Log_fold change: Bacterial chemotaxis [3]: 0.03
- Log_fold change: Bacterial secretion system [3]: 0.01
- Log_fold change: Base excision repair [3]: 0.00
- Log_fold change: Benzoate degradation [3]: −0.01
- Log_fold change: Biosynthesis of amino acids [3]: 0.00
- Log_fold change: Biosynthesis of siderophore group nonribosomal peptides [3]: −0.02
- Log_fold change: Biosynthesis of unsaturated fatty acids [3]: −0.03
- Log_fold change: Biotin metabolism [3]: −0.01
- Log_fold change: Bisphenol degradation [3]: 0.00
- Log_fold change: Butanoate metabolism [3]: −0.01
- Log_fold change: CS-Branched dibasic acid metabolism [3]: 0.01
- Log_fold change: Caprolactam degradation [3]: −0.02
- Log_fold change: Carbon fixation in photosynthetic organisms [3]: 0.00
- Log_fold change: Carbon fixation pathways in prokaryotes [3]: 0.00
- Log_fold change: Carbon metabolism [3]: −0.01
- Log_fold change: Cell cycle-Caulobacter [3]: 0.00
- Log_fold change: Chloroalkane and chloroalkene degradation [3]: −0.03
- Log_fold change: Citrate cycle (TCA cycle) [3]: 0.00
- Log_fold change: Cyanoamino acid metabolism [3]: 0.02
- Log_fold change: Cysteine and methionine metabolism [3]: 0.01
- Log_fold change: D-Alanine metabolism [3]: −0.04
- Log_fold change: D-Arginine and D-ornithine metabolism [3]: 0.24
- Log_fold change: D-Glutamine and D-glutamate metabolism [3]: −0.03
- Log_fold change: DDT degradation [3]: −0.35
- Log_fold change: DNA replication [3]: 0.00
- Log_fold change: Dioxin degradation [3]: −0.12
- Log_fold change: Drug metabolism-other enzymes [3]: 0.00
- Log_fold change: Ether lipid metabolism [3]: −0.02
- Log_fold change: Fatty acid biosynthesis [3]: −0.01
- Log_fold change: Fatty acid degradation [3]: −0.01
- Log_fold change: Fatty acid metabolism [3]: 0.00
- Log_fold change: Flagellar assembly [3]: 0.07
- Log_fold change: Folate biosynthesis [3]: 0.00
- Log_fold change: Fructose and mannose metabolism [3]: 0.00
- Log_fold change: Galactose metabolism [3]: 0.02
- Log_fold change: Geraniol degradation [3]: 0.00
- Log_fold change: Glutathione metabolism [3]: −0.03
- Log_fold change: Glycerolipid metabolism [3]: 0.00
- Log_fold change: Glycerophospholipid metabolism [3]: −0.02
- Log_fold change: Glycine, serine and threonine metabolism [3]: 0.00
- Log_fold change: Glycolysis/Gluconeogenesis [3]: −0.02
- Log_fold change: Glycosaminoglycan degradation [3]: 0.03
- Log_fold change: Glycosphingolipid biosynthesis-globoseries [3]: 0.05
- Log_fold change: Glyoxylate and dicarboxylate metabolism [3]: 0.01
- Log_fold change: Histidine metabolism [3]: 0.01
- Log_fold change: Homologous recombination [3]: −0.01
- Log_fold change: Inositol phosphate metabolism [3]: 0.02
- Log_fold change: Limonene and pinene degradation [3]: −0.01
- Log_fold change: Lipoicacid metabolism [3]: −0.01
- Log_fold change: Lipopolysaccharide biosynthesis [3]: 0.01
- Log_fold change: Lysine biosynthesis [3]: 0.00
- Log_fold change: Lysine degradation [3]: −0.03
- Log_fold change: Methane metabolism [3]: −0.01
- Log_fold change: Mismatch repair [3]: −0.01
- Log_fold change: Naphthalene degradation [3]: −0.02
- Log_fold change: Nicotinate and nicotinamide metabolism [3]: −0.02
- Log_fold change: Nitrogen metabolism [3]: 0.00
- Log_fold change: Nitrotoluene degradation [3]: −0.05
- Log_fold change: Novobiocin biosynthesis [3]: 0.02
- Log_fold change: Nucleotide excision repair [3]: 0.00
- Log_fold change: One carbon pool by folate [3]: 0.01
- Log_fold change: Other glycan degradation [3]: 0.03
- Log_fold change: Oxidative phosphorylation [3]: −0.02
- Log_fold change: Pantothenate and CoA biosynthesis [3]: 0.00
- Log_fold change: Penicillin and cephalosporin biosynthesis [3]: −0.02
- Log_fold change: Pentose and glucuronate interconversions [3]: 0.02
- Log_fold change: Pentose phosphate pathway [3]: 0.00
- Log_fold change: Peptidoglycan biosynthesis [3]: −0.02
- Log_fold change: Phenylalanine metabolism [3]: 0.01
- Log_fold change: Phenylalanine, tyrosine and tryptophan biosynthesis [3]: 0.01
- Log_fold change: Phosphonate and phosphinate metabolism [3]: −0.01
- Log_fold change: Phosphotransferase system (PTS) [3]: −0.17
- Log_fold change: Porphyrin and chlorophyll metabolism [3]: 0.01
- Log_fold change: Propanoate metabolism [3]: −0.01
- Log_fold change: Protein export [3]: −0.01
- Log_fold change: Proximal tubule bicarbonate reclamation [3]: −0.02
- Log_fold change: Purine metabolism [3]: −0.01
- Log_fold change: Pyrimidine metabolism [3]: −0.01
- Log_fold change: Pyruvate metabolism [3]: 0.00
- Log_fold change: RNA degradation [3]: −0.01
- Log_fold change: Riboflavin metabolism [3]: 0.01
- Log_fold change: Ribosome [3]: −0.01
- Log_fold change: Selenocompound metabolism [3]: −0.01
- Log_fold change: Sphingolipid metabolism [3]: 0.04
- Log_fold change: Starch and sucrose metabolism [3]: 0.01
- Log_fold change: Streptomycin biosynthesis [3]: 0.00
- Log_fold change: Styrene degradation [3]: 0.06
- Log_fold change: Sulfur metabolism [3]: −0.01
- Log_fold change: Sulfur relay system [3]: −0.03
- Log_fold change: Synthesis and degradation of ketone bodies [3]: −0.09
- Log_fold change: Taurine and hypotaurine metabolism [3]: 0.00
- Log_fold change: Terpenoid backbone biosynthesis [3]: −0.01
- Log_fold change: Tetracycline biosynthesis [3]: −0.15
- Log_fold change: Thiamine metabolism [3]: −0.02
- Log_fold change: Tropane, piperidine and pyridine alkaloid biosynthesis [3]: 0.02
- Log_fold change: Tryptophan metabolism [3]: −0.04
- Log_fold change: Two−component system [3]: 0.01
- Log_fold change: Tyrosine metabolism [3]: −0.01
- Log_fold change: Ubiquinone and other terpenoid-quinone biosynthesis [3]: −0.03
- Log_fold change: Valine, leucine and isoleucine biosynthesis [3]: 0.01
- Log_fold change: Valine, leucine and isoleucine degradation [3]: 0.00
- Log_fold change: Vibriocholerae pathogenic cycle [3]: 0.00
- Log_fold change: Vitamin B6 metabolism [3]: 0.00
- Log_fold change: Xylene degradation [3]: −0.12
- Log_fold change: beta-Alanine metabolism [3]: −0.01
- Log_fold change: beta-Lactam resistance [3]: 0.01

SMILES: COC(=O)[C@H](Cc1ccccc1)NC(=O)[C@@H](N)CC(=O)O [aspartame] (H-Asp-Phe-OMe)
- glucose tolerance (OGTT) [1]: marked glucose intolerance
- reported toxic dose [2]: 4 gkg^−1
